Reference: patent US10766888B1, “HMOX1 inducers” (Mitobridge Inc., priority 2019, dated 2020)
pKd: −log10 of the molar value. ≈ marks a conversion by molar mass, not a printed value.

How the values were obtained:
[1] = Kinetic solubility; format: physicochemical; details: Dulbecco's phosphate buffer saline (DPBS), aqueous buffer, kinetic from dmso stock, DPBS pH 7.4, 25° C., 200 μM test compound
How it was run: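 Compound from 10 mM DMSO stock diluted to 200 μM final in DPBS pH 7.4 and, separately, in DMSO, in duplicate. Shaken 16 h at 25 °C, then centrifuged 20 min at 25 °C. Supernatant analysed by HPLC.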

[2] = target: T1, Human BACH1 (Homo sapiens, UniProt O14867); test: Microscale thermophoresis (MST) assay / Bach 1 binding assay; details: 10 nM fluorescently labeled BACH1(aa179-736), 25° C.
T1 construct: 10×HIS-GP-BACH1(aa179-736)-Thrombin-FLAG; 10xHis (N); GP linker (Gly-Pro) (N); Thrombin cleavage site (C); FLAG (C); host or cells: Sf9 insect cells
T1 sequence (O14867 179-736): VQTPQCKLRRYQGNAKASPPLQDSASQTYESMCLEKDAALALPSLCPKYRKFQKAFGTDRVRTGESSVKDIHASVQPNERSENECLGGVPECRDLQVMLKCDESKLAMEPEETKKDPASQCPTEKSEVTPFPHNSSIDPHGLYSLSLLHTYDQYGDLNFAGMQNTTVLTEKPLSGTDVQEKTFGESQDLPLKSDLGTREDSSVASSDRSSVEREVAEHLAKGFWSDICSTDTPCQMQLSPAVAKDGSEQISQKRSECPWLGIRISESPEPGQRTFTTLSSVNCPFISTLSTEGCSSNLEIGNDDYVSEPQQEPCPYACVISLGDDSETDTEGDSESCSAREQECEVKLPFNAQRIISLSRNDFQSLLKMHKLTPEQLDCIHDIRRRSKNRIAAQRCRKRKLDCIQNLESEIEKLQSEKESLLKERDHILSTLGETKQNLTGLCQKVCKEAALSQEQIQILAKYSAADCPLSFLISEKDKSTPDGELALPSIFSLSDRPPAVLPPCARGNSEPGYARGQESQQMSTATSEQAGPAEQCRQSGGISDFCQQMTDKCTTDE
Description: Example 146. Microscale Thermophoresis (MST) Assay/Bach 1 Binding Assay
Outline of Protein Expression/Production
Human BACH1 (construct-ID: 10×HIS-GP-BACH1(aa179-736)-Thrombin-FLAG) was expressed in Sf9 insect cells. Protein purification was performed using affinity chromatography, followed by size-exclusion chromatography. Quality of resulting protein was judged using SDS-PAGE analysis.
The MST technology is based on measurement of protein movement along a temperature gradient. Thereby, fluorescently labeled protein is loaded into capillaries, where an infrared laser heats a small volume. Before and during heating, fluorescent intensity is measured at the site of irradiation and the loss of fluorescence in the IR laser focus is quantified.
Two major factors contribute to change of fluorescence signal. First of all, the so-called TRIC (Temperature Related Intensity Change) effect is caused by the temperature-dependency of fluorophore's quantum yield. Herein, the extent of the temperature dependence depends on the chemical environment, which may be changed by the binding of a ligand (e.g. compound, peptide) to the target. Moreover, Kd value between ligand and target can depend on temperature. Second, thermophoresis, which is defined as movement of fluorescent molecules along temperature gradient, is a major contributor to change of fluorescence. Hereby, protein movement along the gradient depends on hydrodynamic radius, charge and hydration shell. These properties can change upon association of the labeled protein with another species, e.g. compound. Thereby, MST detects the differences in protein movement with increasing ligand concentration: from this, the fraction of ligand bound protein and a Kd value can be determined.
For Kd determination of compounds binding BACH1, the following protocol was applied: 10×HIS-GP-BACH1(aa179-736)-Thrombin-FLAG (expressed and purified at Proteros) was fluorescently labeled via its lysine-residues (2nd gen NHS-NT.647 dye).
Experiments were performed using the experimental device Monolith NT.115 Pico, NanoTemper Technologies, with MST power set to medium and excitation power set to 2% at a reaction temperature of 25° C.
10 nM fluorescently labeled BACH1 was applied to reaction buffer containing 50 mM HEPES pH 8.0, 100 mM NaCl, 5% glycerol, 0.05% Tween20 and 1 mM DTT in a reaction volume of 8 μL using Monolith NT.115 Premium Capillaries. Compounds were applied at a maximal concentration of 103 μM with 15 subsequent factor 2 dilutions.

Row | solubility at 16 h [1] [µM] | pKd [2] | SMILES
1 | 11.6 (≈ 4.59 µg/mL) | 6.60 | Cn1c(Nc2nc3ccccc3o2)nc2cc(C(=O)NCCOCCO)ccc21 [Example 17, 2-(benzo[d]oxazol-2-ylamino)-N-(2-(2-hydroxyethoxy)ethyl)-1-methyl-1H-benzo[d]imidazole-5-carboxamide]
2 | 9.7 (≈ 4.26 µg/mL) | 6.60 | COCCNC(=O)c1ccc2c(c1)nc(Nc1nc3ccc(OCCOC)cc3o1)n2C [Example 56, 2-((6-(2-methoxyethoxy)benzo[d]oxazol-2-yl)amino)-N-(2-methoxyethyl)-1-methyl-1H-benzo[d]imidazole-5-carboxamide]
